Data published in patent US5436269A, “Method for treating hepatitis” (Sagami Chemical Research Center, priority 1991, dated 1995).

Assays:
[1] = tested on: fulminant hepatitis; assay: Survival of model rats with induced fulminant hepatitis (D-galactosamine hydrochloride and lipopolysaccharide); type: in vivo, Wister rats
Procedure: Male Wister rats of 200 g weight were processed to be model animals for inducing hepatitis. Namely, 1500 mg/kg-weight of D-galactosamine hydrochloride was intestinally administrated and, at the same time, 10 μg of lipopolysaccharide derived from E. coli 0111:B4 was injected intravenously.

[2] = in vivo; set-up: species or system ddy-N mice; settings: mouse
Procedure: Acute toxicity of ethyl docosahexaenoate was tested.
Tested animal: ddy-N mice, 5-week age, 5 male and 5 female
All tested mice were anatomically evaluated after the test.

CC/C=C\C/C=C\C/C=C\C/C=C\C/C=C\C/C=C\CCC(=O)OCC(COC(=O)CC/C=C\C/C=C\C/C=C\C/C=C\C/C=C\C/C=C\CC)OC(=O)CC/C=C\C/C=C\C/C=C\C/C=C\C/C=C\C/C=C\CC [DHA triglyceride]
model rats survived more than 24 hours ([1]; emulsion containing 10% of 99% pure DHA triglyceride, simultaneous with hepatitis inducer): 67%
induction of hepatitis ([1]; model rats, result in words): inhibits the induction of hepatitis

CC/C=C\C/C=C\C/C=C\C/C=C\C/C=C\C/C=C\CCC(=O)OCC [ethyl docosahexaenoate]
LD50 [2]: > 2000 mg/kg
rats survived ([1]; emulsion of ethyl ester of 99% pure DHA, same experiment as Example 2, control rats died within 24 hours): 75%
